# In ChEMBL document CHEMBL3045700, “Synthesis and in vitro and in vivo antimalarial activity of novel 4-anilinoquinoline Mannich base derivatives” (2011):
# The source made the active and inactive calls. The calls are words filed in the database; no cut-off is given here.
# Experiments:
# Plasmodium falciparum [1] = assay: Antimalarial activity against chloroquine-sensitive Plasmodium falciparum 3D7 assessed as inhibition of schizont maturation at 0.5 ug/ml after 36 to 40 hr incubation by Giemsa staining; assay type: functional
# Plasmodium falciparum [2] = assay: Antimalarial activity against chloroquine-sensitive Plasmodium falciparum 3D7 assessed as inhibition of schizont maturation at 0.125 ug/ml after 36 to 40 hr incubation by Giemsa staining; assay type: functional
# Plasmodium falciparum [3] = assay: Antimalarial activity against chloroquine-sensitive Plasmodium falciparum 3D7 assessed as inhibition of schizont maturation at 0.25 ug/ml after 36 to 40 hr incubation by Giemsa staining; assay type: functional
# Plasmodium falciparum [4] = assay: Antimalarial activity against chloroquine-sensitive Plasmodium falciparum RKL-2 assessed as dead rings and schizonts at 0.4 ug/ml after 36 to 40 hr incubation by Giemsa staining; assay type: functional
# Plasmodium falciparum [5] = assay: Antimalarial activity against chloroquine-sensitive Plasmodium falciparum 3D7 assessed as inhibition of schizont maturation at 0.0625 ug/ml after 36 to 40 hr incubation by Giemsa staining; assay type: functional
# Plasmodium falciparum [6] = assay: Antimalarial activity against chloroquine-sensitive Plasmodium falciparum 3D7 assessed as inhibition of schizont maturation at 50 ug/ml after 36 to 40 hr incubation by Giemsa staining; assay type: functional
# Plasmodium yoelii [7] = assay: Antimalarial activity against chloroquine-resistant Plasmodium yoelii infected Swiss mouse assessed as mouse showing nil parasitemia at 500 mg/kg, po qd for 4 days measured on day 10; assay type: functional, organism-based; set-up: dose 500 mg/kg
# Plasmodium yoelii [8] = assay: Antimalarial activity against chloroquine-resistant Plasmodium yoelii infected Swiss mouse assessed as mouse showing nil parasitemia at 500 mg/kg, po qd for 4 days measured on day 7; assay type: functional, organism-based; set-up: dose 500 mg/kg
# Plasmodium yoelii [9] = assay: Antimalarial activity against chloroquine-resistant Plasmodium yoelii infected Swiss mouse assessed as suppression parasitemia at 500 mg/kg, po qd for 4 days; assay type: functional
# Plasmodium falciparum [10] = assay: Antimalarial activity against chloroquine-sensitive Plasmodium falciparum 3D7 assessed as inhibition of schizont maturation at 10 ug/ml after 36 to 40 hr incubation by Giemsa staining; assay type: functional
# Plasmodium falciparum [11] = assay: Antimalarial activity against chloroquine-sensitive Plasmodium falciparum 3D7 assessed as inhibition of schizont maturation at 100 ug/ml after 36 to 40 hr incubation by Giemsa staining; assay type: functional
# Plasmodium falciparum [12] = assay: Antimalarial activity against chloroquine-sensitive Plasmodium falciparum 3D7 assessed as inhibition of schizont maturation at 0.063 ug/ml after 36 to 40 hr incubation by Giemsa staining; assay type: functional
# Plasmodium falciparum [13] = assay: Antimalarial activity against chloroquine-sensitive Plasmodium falciparum 3D7 assessed as inhibition of schizont maturation at 0.031 ug/ml after 36 to 40 hr incubation by Giemsa staining; assay type: functional
# Plasmodium falciparum [14] = assay: Antimalarial activity against chloroquine-sensitive Plasmodium falciparum 3D7 assessed as inhibition of schizont maturation at 2 ug/ml after 36 to 40 hr incubation by Giemsa staining; assay type: functional
# Plasmodium yoelii [15] = assay: Antimalarial activity against chloroquine-resistant Plasmodium yoelii infected Swiss mouse assessed as mouse showing nil parasitemia at 500 mg/kg, po qd for 4 days measured on day 4; assay type: functional, organism-based; set-up: dose 500 mg/kg
# Plasmodium falciparum [16] = assay: Antimalarial activity against chloroquine-sensitive Plasmodium falciparum 3D7 assessed as inhibition of schizont maturation at 1 ug/ml after 36 to 40 hr incubation by Giemsa staining; assay type: functional
# Plasmodium falciparum [17] = assay: Antimalarial activity against chloroquine-sensitive Plasmodium falciparum RKL-2 assessed as dead rings and schizonts at 100 ug/ml after 36 to 40 hr incubation by Giemsa staining; assay type: functional
structure (smiles),measurement,setting,value
CCN(CC)CCCC(C)Nc1ccnc2cc(Cl)ccc12 (stereo not given) [CHLOROQUINE],inhibition at 0.5 µg/mL,Plasmodium falciparum [1],100%
same,inhibition at 0.125 µg/mL,Plasmodium falciparum [2],97.1%
same,inhibition at 0.25 µg/mL,Plasmodium falciparum [3],100%
same,Activity,Plasmodium falciparum [4],54%
same,inhibition at 0.0625 µg/mL,Plasmodium falciparum [5],88.4%
Oc1ccc(Nc2ccnc3cc(Cl)ccc23)cc1CN1CCOCC1,inhibition at 50 µg/mL,Plasmodium falciparum [6],100%
same,Activity,Plasmodium yoelii [7],Active
same,inhibition at 0.5 µg/mL,Plasmodium falciparum [1],100%
same,Activity,Plasmodium yoelii [8],Active
same,Activity,Plasmodium yoelii [9],100%
same,inhibition at 0.125 µg/mL,Plasmodium falciparum [2],100%
same,inhibition at 0.25 µg/mL,Plasmodium falciparum [3],100%
same,inhibition at 10 µg/mL,Plasmodium falciparum [10],100%
same,inhibition at 100 µg/mL,Plasmodium falciparum [11],100%
same,inhibition at 0.063 µg/mL,Plasmodium falciparum [12],100%
same,inhibition at 0.031 µg/mL,Plasmodium falciparum [13],73.3%
same,inhibition at 2 µg/mL,Plasmodium falciparum [14],100%
same,Activity,Plasmodium yoelii [15],Active
same,inhibition at 1 µg/mL,Plasmodium falciparum [16],100%
CC(C)NCc1cc(Nc2ccnc3cc(Cl)ccc23)ccc1O,Activity,Plasmodium falciparum [17],6.5%
CC(C)N(Cc1cc(Nc2ccnc3cc(Cl)ccc23)ccc1O)C(C)C,Activity,Plasmodium falciparum [17],3%
Oc1ccc(Nc2ccnc3cc(Cl)ccc23)cc1CN(c1ccccc1)c1ccccc1,inhibition at 50 µg/mL,Plasmodium falciparum [6],0.05%
same,inhibition at 100 µg/mL,Plasmodium falciparum [11],38.9%
CCCNCc1cc(Nc2ccnc3cc(Cl)ccc23)ccc1O,Activity,Plasmodium falciparum [17],6.5%
CCCCNCc1cc(Nc2ccnc3cc(Cl)ccc23)ccc1O,inhibition at 50 µg/mL,Plasmodium falciparum [6],100%
same,inhibition at 10 µg/mL,Plasmodium falciparum [10],100%
same,inhibition at 100 µg/mL,Plasmodium falciparum [11],100%
same,inhibition at 2 µg/mL,Plasmodium falciparum [14],82.2%
same,inhibition at 1 µg/mL,Plasmodium falciparum [16],71.1%
CCCCN(CCCC)Cc1cc(Nc2ccnc3cc(Cl)ccc23)ccc1O,Activity,Plasmodium falciparum [17],5%
